Experimental data: ChEMBL document CHEMBL6134842, “Acetal functionalized iminosugars for targeting β-glucocerebrosidase modulation” (Eur J Med Chem, 2025)
Changes are numbered by the printed parent chain. Values belong to the compound of their own block, whether it stands above or below them. The source made the active and inactive calls. The rule behind the calls is not given here.

Assays:
[1] = tested on: T1, Lysosomal acid glucosylceramidase (Homo sapiens), P04062 [L483P]; assay: Modulation of GCase L444P/L444P mutant in Gaucher patient-derived human fibroblasts assessed as fold increase in GCase rescue at 50 uM incubated for 4 days by fluorescence based lysed cell assay relative to control; conditions: Fibroblast, filed as modulator, time 4.0 day
T1 sequence (whole entry): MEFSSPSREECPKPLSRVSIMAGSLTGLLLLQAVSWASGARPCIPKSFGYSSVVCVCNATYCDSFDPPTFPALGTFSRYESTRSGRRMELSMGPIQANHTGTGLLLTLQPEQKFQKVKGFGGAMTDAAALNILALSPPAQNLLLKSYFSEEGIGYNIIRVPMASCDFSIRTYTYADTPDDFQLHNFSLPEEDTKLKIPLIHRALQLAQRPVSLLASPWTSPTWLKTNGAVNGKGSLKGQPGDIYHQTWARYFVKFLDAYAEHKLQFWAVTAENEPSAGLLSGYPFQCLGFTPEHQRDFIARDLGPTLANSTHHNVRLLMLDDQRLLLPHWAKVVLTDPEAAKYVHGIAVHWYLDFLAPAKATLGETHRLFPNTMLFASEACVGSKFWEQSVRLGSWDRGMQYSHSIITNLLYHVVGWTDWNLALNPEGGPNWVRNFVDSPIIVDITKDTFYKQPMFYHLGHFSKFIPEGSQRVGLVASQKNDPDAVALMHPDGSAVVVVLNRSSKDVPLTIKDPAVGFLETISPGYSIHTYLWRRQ

[2] = biological target: T2, Lysosomal acid glucosylceramidase (Homo sapiens, UniProt P04062); assay: Non-competitive inhibition of lysosomal GCase in human leucocytes using 4-methylumbelliferyl-beta-D-glucopyranoside as substrate incubated for 1 hr by fluorescence based assay; assay type: cell-based, Leucocyte
T2 sequence (P04062 whole entry): T1 sequence (whole entry) with P483L

[3] = Stability of compound at pH 5.8 assessed as compound hydrolysis measured after 6 days by 1H NMR spectroscopy; assay type: physicochemical; conditions: buffer, pH 5.8, 144 h; time 6 day
[4] = biological target: T3, Lysosomal acid glucosylceramidase (Homo sapiens) (UniProt P04062); assay: Inhibition of lysosomal GCase in human leucocytes using 4-methylumbelliferyl-beta-D-glucopyranoside as substrate incubated for 1 hr by Lineweaver-burk plot analysis; assay type: cell-based; conditions: Leucocyte
T3 sequence (whole entry): T1 sequence (whole entry) with P483L

[5] = tested on: T1, Lysosomal acid glucosylceramidase (Homo sapiens), P04062 [L483P]; assay: (§1) Modulation of GCase L444P/L444P mutant in Gaucher patient-derived human fibroblasts using 4-methylumbelliferyl beta-D-glucopyranoside as substrate assessed as fold increase in GCase rescue at 30 uM preincubated for 4 days followed by compound washout and substrate addition measured after 2 hrs by fluorescence based intact cell enzyme assay relative to control; conditions: Fibroblast, filed as modulator, time 4.0 day
[6] = biological target: T3, Lysosomal acid glucosylceramidase (Homo sapiens); assay: Inhibition of lysosomal GCase in human leucocytes using 4-methylumbelliferyl-beta-D-glucopyranoside as substrate at 1 mM measured 36 hrs by fluorescence based assay relative to control; assay type: cell-based; conditions: Leucocyte
[7] = biological target: T3, Lysosomal acid glucosylceramidase (Homo sapiens); assay: Non-competitive inhibition of lysosomal GCase in human leucocytes using 4-methylumbelliferyl-beta-D-glucopyranoside as substrate assessed as unchanged Km incubated for 1 hr by fluorescence based assay; assay type: cell-based; conditions: Leucocyte
[8] = biological target: T3, Lysosomal acid glucosylceramidase (Homo sapiens); assay: Inhibition of lysosomal GCase in human leucocytes using 4-methylumbelliferyl-beta-D-glucopyranoside as substrate at 1 mM measured after 12 hrs by fluorescence based assay relative to control; assay type: cell-based; conditions: Leucocyte
[9] = biological target: T3, Lysosomal acid glucosylceramidase (Homo sapiens); assay: Inhibition of lysosomal GCase in human leucocytes using 4-methylumbelliferyl-beta-D-glucopyranoside as substrate at 1 mM measured immediately by fluorescence based assay relative to control; assay type: cell-based; conditions: Leucocyte
[10] = tested on: T1, Lysosomal acid glucosylceramidase (Homo sapiens), P04062 [L483P]; assay: Modulation of GCase L444P/L444P mutant in Gaucher patient-derived human fibroblasts assessed as fold increase in GCase rescue at 100 uM incubated for 4 days by fluorescence based lysed cell assay relative to control; conditions: Fibroblast, filed as modulator, time 4.0 day
[11] = biological target: T3, Lysosomal acid glucosylceramidase (Homo sapiens); assay: Inhibition of lysosomal GCase in human leucocytes using 4-methylumbelliferyl-beta-D-glucopyranoside as substrate at 1 mM incubated for 1 hr by fluorescence based assay relative to control; assay type: cell-based; conditions: Leucocyte
[12] = Stability of compound at pH 7 assessed as compound remaining measured after 4 days by 1H NMR spectroscopy; assay type: physicochemical; conditions: buffer, time 4 day, read-out: Stability
[13] = Stability of compound at pH 5.8 assessed as compound remaining measured after 1 hr by 1H NMR spectroscopy; assay type: physicochemical; conditions: buffer, read-out: Stability
[14] = biological target: T3, Lysosomal acid glucosylceramidase (Homo sapiens); assay: Inhibition of lysosomal GCase in human leucocytes using 4-methylumbelliferyl-beta-D-glucopyranoside as substrate at 1 mM measured 24 hrs by fluorescence based assay relative to control; assay type: cell-based; conditions: Leucocyte
[15] = tested on: Lysosomal acid glucosylceramidase (Homo sapiens), P04062 [UNDEFINED MUTATION]; assay: as §1, with “N370S/RecNcil” for “L444P/L444P”; conditions: Fibroblast, filed as modulator, time 4.0 day
[16] = biological target: T3, Lysosomal acid glucosylceramidase (Homo sapiens); assay: Non-competitive inhibition of lysosomal GCase in human leucocytes using 4-methylumbelliferyl-beta-D-glucopyranoside as substrate assessed as reduction in apparent Vmax incubated for 1 hr by fluorescence based assay; assay type: cell-based; conditions: Leucocyte
[17] = tested on: Lysosomal acid glucosylceramidase (Homo sapiens), P04062 [UNDEFINED MUTATION]; assay: Modulation of GCase N370S/RecNcil mutant in Gaucher patient-derived human fibroblasts assessed as fold increase in GCase rescue at 100 uM incubated for 4 days by fluorescence based lysed cell assay relative to control; conditions: Fibroblast, filed as modulator, time 4.0 day
[18] = tested on: Lysosomal acid glucosylceramidase (Homo sapiens), P04062 [UNDEFINED MUTATION]; assay: Modulation of GCase N370S/RecNcil mutant in Gaucher patient-derived human fibroblasts assessed as fold increase in GCase rescue at 10 uM incubated for 4 days by fluorescence based lysed cell assay relative to control; conditions: Fibroblast, filed as modulator, time 4.0 day
[19] = tested on: T1, Lysosomal acid glucosylceramidase (Homo sapiens), P04062 [L483P]; assay: Modulation of GCase L444P/L444P mutant in Gaucher patient-derived human fibroblasts assessed as GCase rescue at 10 to 100 uM incubated for 4 days by fluorescence based lysed cell assay; conditions: Fibroblast, dose 10-100 µM, time 4.0 day
[20] = tested on: Lysosomal acid glucosylceramidase (Homo sapiens), P04062 [UNDEFINED MUTATION]; assay: Modulation of GCase N370S/RecNcil mutant in Gaucher patient-derived human fibroblasts assessed as GCase rescue at 10 to 100 uM incubated for 4 days by fluorescence based lysed cell assay; conditions: Fibroblast, dose 10-100 µM, time 4.0 day
[21] = Antioxidant activity assessed as DPPH radical scavenging activity at 400 umol measured after 10 mins relative to control; assay type: functional; conditions: dose 400.0 µmol
[22] = Antioxidant activity assessed as inhibition of DPPH radical scavenging activity measured after 10 mins relative to control; assay type: functional
[23] = tested on: Lysosomal acid glucosylceramidase (Homo sapiens), P04062 [UNDEFINED MUTATION]; assay: Modulation of GCase N370S/RecNcil mutant in Gaucher patient-derived human fibroblasts assessed as fold increase in GCase rescue at 20 uM incubated for 4 days by fluorescence based lysed cell assay relative to control; conditions: Fibroblast, filed as modulator, time 4.0 day
[24] = tested on: T1, Lysosomal acid glucosylceramidase (Homo sapiens), P04062 [L483P]; assay: Modulation of GCase L444P/L444P mutant in Gaucher patient-derived human fibroblasts assessed as GCase rescue at 10 uM incubated for 4 days by fluorescence based lysed cell assay; conditions: Fibroblast, filed as modulator, time 4.0 day
[25] = tested on: Lysosomal acid glucosylceramidase (Homo sapiens), P04062 [UNDEFINED MUTATION]; assay: Modulation of GCase N370S/RecNcil mutant in Gaucher patient-derived human fibroblasts assessed as fold increase in GCase rescue at 50 uM incubated for 4 days by fluorescence based lysed cell assay relative to control; conditions: Fibroblast, filed as modulator, time 4.0 day
[26] = Antioxidant activity assessed as DPPH radical scavenging activity at 200 umol measured after 10 mins relative to control; assay type: functional; conditions: dose 200.0 µmol
[27] = tested on: Lysosomal acid glucosylceramidase (Homo sapiens), P04062 [UNDEFINED MUTATION]; assay: as §1, with “N370S/RecNcil” for “L444P/L444P”, “as” for “as fold increase in”, “10 to 100” for “30”, “assay” for “assay relative to control”; conditions: Fibroblast, dose 10-100 µM, time 4.0 day

Chain of Lysosomal acid glucosylceramidase (Homo sapiens), P04062 [UNDEFINED MUTATION] (P04062 whole entry, looked up, stated change not applied): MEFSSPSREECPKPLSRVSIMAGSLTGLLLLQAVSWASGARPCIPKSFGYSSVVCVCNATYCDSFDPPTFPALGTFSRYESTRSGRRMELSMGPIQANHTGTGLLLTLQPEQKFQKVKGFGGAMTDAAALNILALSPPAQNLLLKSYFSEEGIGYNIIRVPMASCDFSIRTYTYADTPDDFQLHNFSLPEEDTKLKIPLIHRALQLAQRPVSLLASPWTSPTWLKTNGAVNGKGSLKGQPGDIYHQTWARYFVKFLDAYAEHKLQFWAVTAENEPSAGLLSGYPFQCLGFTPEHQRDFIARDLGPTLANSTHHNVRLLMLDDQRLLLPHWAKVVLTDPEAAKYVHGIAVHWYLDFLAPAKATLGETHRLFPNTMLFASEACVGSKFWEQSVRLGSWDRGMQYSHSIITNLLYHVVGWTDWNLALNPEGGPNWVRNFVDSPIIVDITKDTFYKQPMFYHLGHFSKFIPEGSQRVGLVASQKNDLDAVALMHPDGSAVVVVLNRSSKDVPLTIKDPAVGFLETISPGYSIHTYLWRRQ

Compound: Nc1c(Br)cc(Br)cc1CN[C@H]1CC[C@H](O)CC1
- fold change (FC) [1]: 1.3

Compound: OC[C@H]1CNC[C@@H](O)[C@@H]1O
- fold change (FC) [18]: 2

Compound: Cc1cc(C(C)(C)C)c(O)c(C(C)(C)C)c1
- inhibition [22]: > 95%

Compound: CCCCOC1OCC(CNC(=S)N2C[C@H](O)[C@@H](O)[C@H](O)[C@H]2CO)O1 (some centres not stated)
- fold change (FC) [23]: 1.5
- Activity [19]: inactive

Compound: CCCCCCCCCCCCOC1OC[C@H](CCN2C[C@@H](O)C(O)[C@H](O)C2)O1 (some centres not stated)
- fold change (FC) [18]: 2.06
- fold change (FC) [24]: 1.24
- fold change (FC) [1]: 2.15
- fold change (FC) [25]: 1.92

Compound: OC1[C@H](O)CN(CC[C@H]2COC(OCc3ccc(-c4ccccc4)cc3)O2)C[C@H]1O (some centres not stated)
- fold change (FC) [24]: 2.03
- fold change (FC) [1]: 2.11
- fold change (FC) [17]: 1.61

Continued, in another order:

- IC50 [2]: 100 µM
- Stability [3]: Stable
- fold change (FC) [5]: 1.26
- inhibition [6]: 76%
- inhibition [7]: Active
- inhibition [8]: 77%
- inhibition [9]: 80%
- fold change (FC) [10]: 1.56
- inhibition [11]: 75%
- remaining at 96 h [12]: > 95%
- remaining at 1 h [13]: > 95%
- inhibition [14]: 80%
- fold change (FC) [15]: 1.46
- inhibition [16]: Active
- fold change (FC) [17]: 1.83
Compound: OC1[C@H](O)CN(CC[C@H]2COC(c3ccc(Br)cc3)O2)C[C@H]1O (some centres not stated)
- inhibition [4]: Active; The Secondary Plot Was Concave Upward, Rather Than Linear, Thus Confirming That Inhibitory Effect Arises From The Binding Of More Than One Molecule Of Compound On Enzyme Surface; Not Attributable To A Cooperativity Phenomenon

- Activity [19]: inactive
- inhibition [11]: 70%
- remaining at 96 h [12]: 61%
- remaining at 1 h [13]: 82%
- Activity [20]: inactive
Compound: COc1cc(C2OC[C@H](CCN3C[C@@H](O)C(O)[C@H](O)C3)O2)ccc1O (some centres not stated)
- Activity [21]: 14%

- IC50 [2]: 300 µM
- Stability [3]: Stable
- Activity [19]: inactive
- inhibition [11]: 77%
- remaining at 96 h [12]: > 95%
- remaining at 1 h [13]: > 95%
- fold change (FC) [17]: 1.6
Compound: O=[N+]([O-])c1ccc(C2OC[C@H](CCN3C[C@@H](O)C(O)[C@H](O)C3)O2)cc1 (some centres not stated)

- inhibition [6]: 47%
- inhibition [8]: 69%
- inhibition [9]: 75%
- inhibition [11]: 84%
- fold change (FC) [1]: 1.3
- remaining at 96 h [12]: 72%
- remaining at 1 h [13]: 87%
- inhibition [14]: 55%
- fold change (FC) [17]: 1.5
- Activity [27]: inactive
Compound: COc1cc(/C=C/C2OC[C@H](CCN3C[C@@H](O)C(O)[C@H](O)C3)O2)ccc1O (some centres not stated)
- Activity [26]: 67%
